Here are results for 5 molecules from US20200197266A1, “MICROGELS FOR THE DELIVERY OF COSMETIC ACTIVE ORGANIC SUBSTANCES” (LVMH RECHERCHE, priority 2017, published 2020).

Series [1] in a line: In vitro release of cosmetic active molecules from loaded microgels by a dialysis method. The conditions noted are these: 35% ethanol in dialysate medium, pH 6, 25° C. On the procedure: The study of active molecules release kinetics was carried out by a dialysis method in order to verify that no microgel diffusion occur in dialysate medium (that may also be called “release medium”), and in order to observe the cosmetic active molecule release profile against time.
For that, active molecules-loaded microgel particle dispersions (1 mg/mg microgel) were dialyzed against a dialysate medium. Diffusion of the cosmetic active molecule from the loaded-microgel dispersion medium to the dialysate medium is observed, until an equilibrium concentration is reached between both media.
Loaded-microgel particles comprising an active molecule in an amount of 1 mg/(mg unloaded microgel) were placed inside a dialysis tube and dialyzed in different buffered dialysate media (having different pH, having different temperature, containing a solvent and/or containing a surfactant). The buffered dialysate medium can contain ethanol, citric acid, sodium phosphate dibasic or/and polyoxyethylene monooleate sorbitan (also named Polysorbate 80, Tween® 80 or INCI […]). Active substance concentration in the dialysate medium was determined by UV-Vis.
The effect of temperature on the release kinetics of active molecules was investigated with the dialysate method maintaining pH of the dialysate medium constant at 4.5. The in vitro release was studied at two different temperatures: 25° C. […]

The conditions of series [2]: cited from earlier work.
The conditions of series [3]: cited from earlier work. This is another data set of the same source.

Converted amounts (≈) assume the structure as drawn. Read-outs that look alike come from different tables or passages of the source. Some results are limits rather than exact numbers.

With `CCCCC(CC)COC(=O)c1ccccc1O` (stereo not shown) [Escalol, 2-ethylhexyl salicylate], in series [1], the “Incubation time in which 100% is released” value is at most 6 h. In series [2], the “Solubility in ethanol” value is reported as “soluble in ethanol” and the “Solubility in water” value is given as “slighty soluble in water”.

Regarding `CCCCCCOC(=O)c1ccccc1C(=O)c1ccc(N(CC)CC)cc1O` [Uvinul-A, hexyl 2-[4-(diethylamino)-2-hydroxybenzoyl]benzoate], in series [2], the “Solubility in ethanol” value is recorded as “soluble in ethanol” and the “Solubility in water” value is “insoluble in water”.

With `CC(C)=CCCC(C)CCO` (stereo not shown) [Citronellol, 3,7-dimethyloct-6-en-1-ol], the Solubility in water in series [2] (at 25° C.) is 0.2 mg/mL (≈ 1280 µM). Moreover, in series [2], the “Solubility in ethanol” value is recorded as “very soluble in ethanol”.

With Hyaluronic acid, the “Solubility in water” value in series [2] is “soluble in water”. The pKa in series [3] was 3.

With `O=C(O)c1ccccc1O` [Salicylic acid, 2-Hydroxybenzoic acid, reference compound], in series [2], the “Solubility in ethanol” value is “soluble in ethanol”.
